{"source": "paper PMC9503459", "about": "“Antifungal Activity, Structural Stability, and Immunomodulatory Effects on Human Immune Cells of Defensin from the Lentil Lens culinaris” (Membranes, 2022)", "system": "clinical isolate of C. glabrata (252/2)", "assay": "Antifungal microdilution assay, C. glabrata", "format": "cell-based, Candida glabrata", "details": "24 h; for inhibition of the growth: C. glabrata", "procedure": "The clinical isolates of Candida albicans (v47a3), C. krusei (225/2) and C. glabrata (252/2) were collected from patients with human immunodeficiency virus (HIV) infection and provided by G.N. Gabrichevsky Research Institute for Epidemiology and Microbiology (Moscow, Russia). Strains stocks were kept at −70 ℃ in 10% nonfat milk with 10% glycerol.\nAntifungal susceptibility tests were performed by the microdilution method using 96-well microplates. Yeast cells in stock were inoculated onto modified YPD (yeast extract 5 g/L, peptone 10 g/L, glucose 10 g/L) agar plates, and incubated for 24 h at 37 ℃. After replating, cells were cultured in modified YPD broth at 37 ℃ to optical density 1.0 at 540 nm. Further, yeast cells in modified YPD broth at concentration of 5 × 10^4 cells/mL were mixed with equal volumes of serial two-fold dilutions of the peptide in water which started at the highest peptide concentration of 200 µM. Final peptide concentrations in the wells were 100, 50, 25, 12.5, 6.25, 3.125, and 1.56 μM. Controls without defensin were also tested. Plates were incubated at 30 ℃ during 24 h. Yeast growth was estimated using inverted microscope as well as by measuring the optical density at 540 nm. Percentage of growth inhibition was defined as: growth inhibition (%) = ((Acontrol − Asample)/Acontrol) × 100%. All of the experiments were performed twice in triplicate. The t-test was performed to study the statistical difference (p-value) between the means of controls and samples with different peptide concentrations. The experiment with lentil Lens culinaris lipid transfer protein Lc-LTP2 was carried out for comparison.", "note": "No end group written: not given here.", "data": [{"substance": "Lc-def: defensin from lentil Lens culinaris seeds (UniProt:B3F051), recombinant, overexpressed in Escherichia coli (KTCENLSDSFKGPCIPDGNCNKHCKEKEHLLSGRCRDDFRCWCTRNC; disulfide (positions not given here); ends not checked; also: disulfide bonds present, pairing not given here; UniProt B3F051 28-74, looked up)", "values": [{"measurement": "IC50", "setting": "C. glabrata clinical isolate, microdilution, modified YPD, 30 °C, OD540, twice in triplicate, read-out: concentration causing 50% growth inhibition", "value": "25 to 50", "unit": "µM"}, {"measurement": "inhibition of the growth", "setting": "50 μM peptide", "value": "~90", "unit": "%"}, {"measurement": "inhibition of the growth", "setting": "100 μM peptide", "value": "< 100", "unit": "%"}]}]}
